Source: publication PMC6199744, “Development of Chemical Proteomics for the Folateome and Analysis of the Kinetoplastid Folateome” (ACS Infectious Diseases, 2018)
Where two headings read alike, the source gives them in different places.

Experiments:
Assay type in all cases: binding
[1] = target: T1, HeLa cell extract proteins (Homo sapiens, UniProt Q86VP6)
T1 construct: endogenous in cells; host or cells: HeLa cell extract
T1 sequence (Q86VP6 1-1230): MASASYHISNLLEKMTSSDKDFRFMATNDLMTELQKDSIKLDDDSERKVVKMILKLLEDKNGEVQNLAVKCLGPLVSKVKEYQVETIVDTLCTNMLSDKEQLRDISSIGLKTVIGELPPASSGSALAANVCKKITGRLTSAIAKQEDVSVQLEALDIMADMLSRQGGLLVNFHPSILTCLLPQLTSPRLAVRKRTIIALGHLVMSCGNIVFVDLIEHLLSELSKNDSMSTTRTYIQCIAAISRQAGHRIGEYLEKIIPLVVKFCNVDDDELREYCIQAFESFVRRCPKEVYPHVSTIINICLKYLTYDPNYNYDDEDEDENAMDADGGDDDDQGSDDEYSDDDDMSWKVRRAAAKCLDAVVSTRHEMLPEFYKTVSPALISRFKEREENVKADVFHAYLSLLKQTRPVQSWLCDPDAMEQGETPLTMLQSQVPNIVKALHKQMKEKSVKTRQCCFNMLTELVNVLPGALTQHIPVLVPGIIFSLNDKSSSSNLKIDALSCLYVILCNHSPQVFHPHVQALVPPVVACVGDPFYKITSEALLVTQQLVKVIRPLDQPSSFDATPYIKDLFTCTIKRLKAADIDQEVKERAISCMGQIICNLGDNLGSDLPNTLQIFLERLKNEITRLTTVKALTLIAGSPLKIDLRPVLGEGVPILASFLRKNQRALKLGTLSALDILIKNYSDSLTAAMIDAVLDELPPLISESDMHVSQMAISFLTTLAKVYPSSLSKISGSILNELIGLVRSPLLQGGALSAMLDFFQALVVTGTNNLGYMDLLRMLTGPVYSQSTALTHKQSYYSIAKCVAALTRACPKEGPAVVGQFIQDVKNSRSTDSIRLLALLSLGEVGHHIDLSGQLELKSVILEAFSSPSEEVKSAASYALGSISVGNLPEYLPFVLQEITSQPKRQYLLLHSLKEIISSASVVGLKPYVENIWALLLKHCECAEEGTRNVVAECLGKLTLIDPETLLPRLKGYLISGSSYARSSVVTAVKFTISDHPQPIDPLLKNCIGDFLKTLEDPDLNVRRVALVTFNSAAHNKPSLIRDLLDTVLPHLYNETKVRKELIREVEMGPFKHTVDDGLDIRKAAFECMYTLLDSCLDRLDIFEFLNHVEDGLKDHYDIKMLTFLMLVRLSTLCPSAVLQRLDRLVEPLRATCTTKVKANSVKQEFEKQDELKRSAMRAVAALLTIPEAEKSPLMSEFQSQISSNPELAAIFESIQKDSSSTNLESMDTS

[2] = target: T2, HeLa cell extract proteins (Homo sapiens, UniProt P62195)
T2 construct: endogenous in cells; host or cells: HeLa cell extract
T2 sequence (P62195 whole entry): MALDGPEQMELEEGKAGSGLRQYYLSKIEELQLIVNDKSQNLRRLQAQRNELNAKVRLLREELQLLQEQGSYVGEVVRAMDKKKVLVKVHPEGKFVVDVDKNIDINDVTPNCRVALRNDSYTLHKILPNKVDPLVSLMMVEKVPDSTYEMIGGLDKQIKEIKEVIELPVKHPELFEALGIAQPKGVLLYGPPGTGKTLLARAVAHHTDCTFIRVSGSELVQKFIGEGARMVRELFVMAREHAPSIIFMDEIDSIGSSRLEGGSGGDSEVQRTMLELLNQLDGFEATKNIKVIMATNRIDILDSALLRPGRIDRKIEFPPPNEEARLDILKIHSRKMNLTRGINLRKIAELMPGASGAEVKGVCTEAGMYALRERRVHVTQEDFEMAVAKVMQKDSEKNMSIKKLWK

[3] = target: T3, HeLa cell extract proteins (Homo sapiens, UniProt P62820)
T3 construct: endogenous in cells; host or cells: HeLa cell extract
T3 sequence (P62820 whole entry): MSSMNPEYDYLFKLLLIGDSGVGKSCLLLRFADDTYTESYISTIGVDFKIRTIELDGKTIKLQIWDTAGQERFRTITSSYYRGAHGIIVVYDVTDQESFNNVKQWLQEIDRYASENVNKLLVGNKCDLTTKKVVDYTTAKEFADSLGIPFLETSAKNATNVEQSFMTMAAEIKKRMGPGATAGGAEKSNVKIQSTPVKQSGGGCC

[4] = target: T4, HeLa cell extract proteins (Homo sapiens, UniProt Q14247)
T4 construct: endogenous in cells; host or cells: HeLa cell extract
T4 sequence (Q14247 1-550): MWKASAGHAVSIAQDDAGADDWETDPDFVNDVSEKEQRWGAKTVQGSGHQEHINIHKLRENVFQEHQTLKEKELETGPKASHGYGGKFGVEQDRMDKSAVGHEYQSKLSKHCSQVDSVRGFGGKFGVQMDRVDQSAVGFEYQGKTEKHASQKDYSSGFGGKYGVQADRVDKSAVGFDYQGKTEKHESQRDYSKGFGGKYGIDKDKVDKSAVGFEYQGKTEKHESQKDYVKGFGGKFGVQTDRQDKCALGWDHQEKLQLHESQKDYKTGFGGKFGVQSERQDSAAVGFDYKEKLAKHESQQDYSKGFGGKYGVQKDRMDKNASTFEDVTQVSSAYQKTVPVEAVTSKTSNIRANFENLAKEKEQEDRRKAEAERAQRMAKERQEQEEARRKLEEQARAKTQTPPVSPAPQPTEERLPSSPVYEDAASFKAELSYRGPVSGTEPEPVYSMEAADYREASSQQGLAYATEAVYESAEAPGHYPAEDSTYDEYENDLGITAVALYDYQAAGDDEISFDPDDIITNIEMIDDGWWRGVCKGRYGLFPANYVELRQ

[5] = target: T5, HeLa cell extract proteins (Homo sapiens, UniProt Q92621)
T5 construct: endogenous in cells; host or cells: HeLa cell extract
T5 sequence (Q92621 whole entry): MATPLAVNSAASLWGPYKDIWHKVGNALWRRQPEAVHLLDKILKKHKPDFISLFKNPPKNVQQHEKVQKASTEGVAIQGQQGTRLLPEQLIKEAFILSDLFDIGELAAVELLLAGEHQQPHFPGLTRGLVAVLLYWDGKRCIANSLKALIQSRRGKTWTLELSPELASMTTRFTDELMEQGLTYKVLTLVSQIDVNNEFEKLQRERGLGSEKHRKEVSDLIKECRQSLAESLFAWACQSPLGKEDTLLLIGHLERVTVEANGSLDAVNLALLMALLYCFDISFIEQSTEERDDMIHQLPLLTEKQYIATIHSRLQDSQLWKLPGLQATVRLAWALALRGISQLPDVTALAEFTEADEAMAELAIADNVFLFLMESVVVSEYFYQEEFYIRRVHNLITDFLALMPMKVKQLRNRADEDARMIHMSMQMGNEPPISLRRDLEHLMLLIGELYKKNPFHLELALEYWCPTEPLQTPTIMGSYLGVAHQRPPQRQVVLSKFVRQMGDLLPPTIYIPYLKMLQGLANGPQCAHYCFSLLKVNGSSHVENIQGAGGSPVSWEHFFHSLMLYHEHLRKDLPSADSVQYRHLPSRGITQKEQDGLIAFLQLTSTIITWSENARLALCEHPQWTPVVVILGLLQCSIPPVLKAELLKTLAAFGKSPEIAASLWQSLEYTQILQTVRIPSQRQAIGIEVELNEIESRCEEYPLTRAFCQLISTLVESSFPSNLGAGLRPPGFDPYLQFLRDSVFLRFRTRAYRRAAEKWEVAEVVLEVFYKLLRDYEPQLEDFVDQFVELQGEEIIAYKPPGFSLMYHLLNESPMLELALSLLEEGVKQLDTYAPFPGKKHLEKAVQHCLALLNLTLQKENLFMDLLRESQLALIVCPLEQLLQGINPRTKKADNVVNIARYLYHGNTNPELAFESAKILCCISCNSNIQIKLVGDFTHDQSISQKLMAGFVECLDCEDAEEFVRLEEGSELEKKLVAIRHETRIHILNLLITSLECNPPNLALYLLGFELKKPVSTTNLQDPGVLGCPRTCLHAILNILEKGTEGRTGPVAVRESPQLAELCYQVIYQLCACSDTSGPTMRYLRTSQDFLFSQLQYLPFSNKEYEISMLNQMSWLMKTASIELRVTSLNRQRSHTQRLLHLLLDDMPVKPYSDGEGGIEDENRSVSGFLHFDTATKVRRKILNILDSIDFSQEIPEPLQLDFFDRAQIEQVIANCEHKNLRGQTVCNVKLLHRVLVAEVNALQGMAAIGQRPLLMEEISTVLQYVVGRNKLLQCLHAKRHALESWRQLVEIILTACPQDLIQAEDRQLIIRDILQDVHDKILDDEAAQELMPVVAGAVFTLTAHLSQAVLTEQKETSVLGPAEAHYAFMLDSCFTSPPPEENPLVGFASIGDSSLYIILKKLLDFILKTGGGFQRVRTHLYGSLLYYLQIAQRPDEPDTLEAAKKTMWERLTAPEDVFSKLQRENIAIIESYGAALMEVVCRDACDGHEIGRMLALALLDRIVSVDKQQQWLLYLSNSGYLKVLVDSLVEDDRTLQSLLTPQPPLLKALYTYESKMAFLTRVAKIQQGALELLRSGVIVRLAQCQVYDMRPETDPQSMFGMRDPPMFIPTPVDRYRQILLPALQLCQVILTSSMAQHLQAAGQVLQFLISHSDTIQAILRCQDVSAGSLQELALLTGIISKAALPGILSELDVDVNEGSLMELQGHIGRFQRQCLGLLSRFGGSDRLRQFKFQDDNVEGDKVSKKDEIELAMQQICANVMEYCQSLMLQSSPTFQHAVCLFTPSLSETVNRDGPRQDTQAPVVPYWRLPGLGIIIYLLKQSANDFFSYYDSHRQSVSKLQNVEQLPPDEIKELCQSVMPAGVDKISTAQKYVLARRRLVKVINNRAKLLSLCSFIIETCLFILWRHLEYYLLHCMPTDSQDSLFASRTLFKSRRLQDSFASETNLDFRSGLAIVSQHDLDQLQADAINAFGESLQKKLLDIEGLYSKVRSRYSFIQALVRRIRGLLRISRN

[6] = target: T6, HeLa cell extract proteins (Homo sapiens, UniProt P30153)
T6 construct: endogenous in cells; host or cells: HeLa cell extract
T6 sequence (P30153 whole entry): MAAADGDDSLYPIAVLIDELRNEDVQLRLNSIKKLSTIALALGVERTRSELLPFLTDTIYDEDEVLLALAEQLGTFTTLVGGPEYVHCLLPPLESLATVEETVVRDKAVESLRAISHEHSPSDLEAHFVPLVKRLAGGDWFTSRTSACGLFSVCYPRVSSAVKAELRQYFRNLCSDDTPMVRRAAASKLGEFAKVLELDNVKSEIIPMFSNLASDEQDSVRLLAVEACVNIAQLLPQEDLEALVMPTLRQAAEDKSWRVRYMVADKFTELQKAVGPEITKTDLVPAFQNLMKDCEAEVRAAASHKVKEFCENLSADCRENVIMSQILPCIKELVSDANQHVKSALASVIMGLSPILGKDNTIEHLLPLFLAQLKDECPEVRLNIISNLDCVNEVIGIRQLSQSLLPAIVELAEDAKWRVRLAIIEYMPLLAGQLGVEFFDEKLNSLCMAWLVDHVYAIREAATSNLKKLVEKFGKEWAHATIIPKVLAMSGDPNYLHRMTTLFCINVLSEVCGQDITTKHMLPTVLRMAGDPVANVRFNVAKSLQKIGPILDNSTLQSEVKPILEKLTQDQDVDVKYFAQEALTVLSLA

[7] = target: T7, HeLa cell extract proteins (Homo sapiens, UniProt P60709)
T7 construct: endogenous in cells; host or cells: HeLa cell extract

[8] = target: T8, HeLa cell extract proteins (Homo sapiens, UniProt P24752)
T8 construct: endogenous in cells; host or cells: HeLa cell extract
T8 sequence (P24752 34-427): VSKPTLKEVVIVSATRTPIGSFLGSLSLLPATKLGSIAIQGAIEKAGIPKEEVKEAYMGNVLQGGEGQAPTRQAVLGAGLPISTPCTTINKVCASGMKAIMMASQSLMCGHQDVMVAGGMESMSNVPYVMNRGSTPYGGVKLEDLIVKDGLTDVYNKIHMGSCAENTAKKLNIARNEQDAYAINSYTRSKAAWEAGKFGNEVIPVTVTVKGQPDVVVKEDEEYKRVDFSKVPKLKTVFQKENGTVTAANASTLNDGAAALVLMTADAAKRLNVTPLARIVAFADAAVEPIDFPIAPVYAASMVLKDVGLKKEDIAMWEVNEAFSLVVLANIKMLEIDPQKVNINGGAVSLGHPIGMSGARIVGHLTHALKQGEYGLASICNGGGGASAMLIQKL

| Compound | fold changes relative to vehicle control ([1]; protein CAND1, HeLa) | fold changes relative to vehicle control ([2]; HeLa, protein PSMC5) | fold changes relative to vehicle control ([3]; HeLa, protein RAB1A) | fold changes relative to vehicle control ([4]; HeLa, captured protein CTTN) | fold changes relative to vehicle control ([5]; HeLa, captured protein NUP205) | fold changes relative to vehicle control ([6]; HeLa, protein PPP2R1A) | fold changes relative to vehicle control ([7]; HeLa, protein ACTB) | fold changes relative to vehicle control ([8]; protein ACAT1, HeLa) | fold changes relative to vehicle control ([2]; protein PSMC5, HeLa) | fold changes relative to vehicle control ([3]; captured protein RAB1A, HeLa) | fold changes relative to vehicle control ([4]; protein CTTN, HeLa) | fold changes relative to vehicle control ([5]; captured protein NUP205, HeLa) | fold changes relative to vehicle control ([7]; protein ACTB, HeLa) | further results |
| --- | --- | --- | --- | --- | --- | --- | --- | --- | --- | --- | --- | --- | --- | --- |
| Nc1nc2c(c(=O)[nH]1)N(C=O)C(CNc1ccc(C(=O)N[C@@H](CCC(=O)O)C(=O)O)cc1)CN2 (some centres unmarked) [LEU, leucovorin] | 0.99 | 1.02 | 1.2 | 0.99 | 1.03 | 0.97 | 1.13 | 1 |  |  |  |  |  |  |
| NCCCNc1ccc(C(=O)NC(CCC(=O)O)C(=O)O)cc1 (centres unmarked) [compound 7] | 0.77 | 1.04 | 1.07 | 0.96 | 1.16 | 0.95 | 1.04 | 0.87 |  |  |  |  |  |  |
| CCCCCCOc1cccc(Cc2cnc(N)nc2N)c1 [compound 2] | 1.95 |  |  |  |  | 0.95 |  | 1.75 | 1.36 | 1.19 | 1.18 | 1.1 | 1.5 |  |
| CCCCCCOc1ccc(Cc2cnc(N)nc2N)cc1 [compound 1] | 1.15 |  |  |  |  | 0.95 |  | 1.22 | 1.07 | 0.74 | 1.04 | 1.03 | 1.25 |  |
| Nc1nc2cccc(-c3ccccc3)c2n1Cc1ccc(Cl)c(Cl)c1 [compound 3] | 0.86 |  |  |  |  | 0.88 |  | 0.84 | 1.05 | 0.91 | 0.94 | 1.18 | 1.07 |  |
| NCCOCCOCC(=O)Nc1nc2ncc(CNc3ccc(C(=O)NC(CCC(=O)O)C(=O)O)cc3)nc2c(=O)[nH]1 (centres unmarked) [compound 6] | 1.11 | 1.12 | 1.21 | 1.06 | 1.16 | 0.86 | 1.39 | 1.31 |  |  |  |  |  |  |
| Nc1nc2[nH]cc(CCc3ccc(C(=O)N[C@@H](CCC(=O)O)C(=O)O)cc3)c2c(=O)[nH]1 [PTX, pemetrexed] |  |  |  |  |  |  |  |  |  |  |  |  |  | fold changes relative to vehicle control [1]: 0.96; fold changes relative to vehicle control [2]: 1.03; fold changes relative to vehicle control [3]: 1.17; fold changes relative to vehicle control [4]: 0.97; fold changes relative to vehicle control [5]: 1.09; fold changes relative to vehicle control [6]: 0.87; fold changes relative to vehicle control [7]: 1.18; fold changes relative to vehicle control [8]: 0.9 |
